In data set [1] the target is T1, Amine oxidase [flavin-containing] A (Homo sapiens, UniProt P21397).
T1 sequence (P21397 whole entry): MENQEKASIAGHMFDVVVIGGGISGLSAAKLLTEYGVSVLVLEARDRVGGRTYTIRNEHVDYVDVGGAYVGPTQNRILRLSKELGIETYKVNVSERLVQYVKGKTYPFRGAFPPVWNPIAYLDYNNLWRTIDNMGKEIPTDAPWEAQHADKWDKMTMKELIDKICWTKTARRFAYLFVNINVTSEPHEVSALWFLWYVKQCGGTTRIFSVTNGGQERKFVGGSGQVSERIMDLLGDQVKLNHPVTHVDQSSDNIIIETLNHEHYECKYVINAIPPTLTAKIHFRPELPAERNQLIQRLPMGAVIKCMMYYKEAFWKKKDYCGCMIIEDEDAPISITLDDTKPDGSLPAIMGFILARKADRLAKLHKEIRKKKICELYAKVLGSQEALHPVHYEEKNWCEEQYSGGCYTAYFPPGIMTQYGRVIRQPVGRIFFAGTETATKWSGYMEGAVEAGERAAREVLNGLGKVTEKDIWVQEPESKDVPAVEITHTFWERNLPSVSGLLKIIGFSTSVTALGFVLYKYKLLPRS
The data set can be described thus: Inhibition of MAOA (unknown origin) at >20 uM.

The target of a further data set is hERG (KCNH2) (Homo sapiens, UniProt Q12809). The data set can be described thus: Inhibition of human ERG at 10 uM relative to control.
The target in data set [2] is T2, Amine oxidase [flavin-containing] B (Homo sapiens, UniProt P27338).
T2 sequence (P27338 whole entry): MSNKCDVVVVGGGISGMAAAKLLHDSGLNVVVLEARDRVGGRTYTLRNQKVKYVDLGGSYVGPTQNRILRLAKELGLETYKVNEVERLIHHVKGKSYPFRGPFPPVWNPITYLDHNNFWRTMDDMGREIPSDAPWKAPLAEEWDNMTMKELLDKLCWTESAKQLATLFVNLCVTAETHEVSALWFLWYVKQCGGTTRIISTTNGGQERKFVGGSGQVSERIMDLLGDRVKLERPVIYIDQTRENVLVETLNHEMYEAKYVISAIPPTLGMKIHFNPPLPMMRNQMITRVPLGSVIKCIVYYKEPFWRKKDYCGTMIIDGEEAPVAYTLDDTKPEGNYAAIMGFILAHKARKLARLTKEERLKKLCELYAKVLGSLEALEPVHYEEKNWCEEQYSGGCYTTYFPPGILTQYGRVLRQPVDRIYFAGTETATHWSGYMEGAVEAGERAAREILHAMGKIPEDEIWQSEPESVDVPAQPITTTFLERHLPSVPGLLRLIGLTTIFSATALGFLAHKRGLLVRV
In words: Inhibition of MAOB (unknown origin) at >20 uM.

Data set [3] can be described thus: AUC (0 to 6 hrs) in CD-1 mouse at 10 mg/kg, po. It counts as ADME, organism-based. Also noted: dose 10 mg/kg, time < 6 hr, route oral. The following applies: in vivo.
Data set [4] has as its target T3, Lysine-specific histone demethylase 1A (Homo sapiens, UniProt O60341). The data set can be described thus: Inhibition of LSD1 in human THP1 cells assessed as induction of CD11b expression after 4 days by LIVE/DEAD violet staining based FACS analysis. In general terms: Flow cytometry measures light scatter and fluorescence of single cells or particles in a stream.

Data set [5] deals with T3, Lysine-specific histone demethylase 1A. In words: Inhibition of LSD1 (unknown origin).

Results on 16 compounds are retold here after ChEMBL document CHEMBL4308861, “Structure-based design and discovery of potent and selective lysine-specific demethylase 1 (LSD1) inhibitors” (Bioorg Med Chem Lett, 2019).

Structures are written as SMILES. Bounds are passed on as bounds.

hERG (KCNH2), sequence (Q12809 whole entry): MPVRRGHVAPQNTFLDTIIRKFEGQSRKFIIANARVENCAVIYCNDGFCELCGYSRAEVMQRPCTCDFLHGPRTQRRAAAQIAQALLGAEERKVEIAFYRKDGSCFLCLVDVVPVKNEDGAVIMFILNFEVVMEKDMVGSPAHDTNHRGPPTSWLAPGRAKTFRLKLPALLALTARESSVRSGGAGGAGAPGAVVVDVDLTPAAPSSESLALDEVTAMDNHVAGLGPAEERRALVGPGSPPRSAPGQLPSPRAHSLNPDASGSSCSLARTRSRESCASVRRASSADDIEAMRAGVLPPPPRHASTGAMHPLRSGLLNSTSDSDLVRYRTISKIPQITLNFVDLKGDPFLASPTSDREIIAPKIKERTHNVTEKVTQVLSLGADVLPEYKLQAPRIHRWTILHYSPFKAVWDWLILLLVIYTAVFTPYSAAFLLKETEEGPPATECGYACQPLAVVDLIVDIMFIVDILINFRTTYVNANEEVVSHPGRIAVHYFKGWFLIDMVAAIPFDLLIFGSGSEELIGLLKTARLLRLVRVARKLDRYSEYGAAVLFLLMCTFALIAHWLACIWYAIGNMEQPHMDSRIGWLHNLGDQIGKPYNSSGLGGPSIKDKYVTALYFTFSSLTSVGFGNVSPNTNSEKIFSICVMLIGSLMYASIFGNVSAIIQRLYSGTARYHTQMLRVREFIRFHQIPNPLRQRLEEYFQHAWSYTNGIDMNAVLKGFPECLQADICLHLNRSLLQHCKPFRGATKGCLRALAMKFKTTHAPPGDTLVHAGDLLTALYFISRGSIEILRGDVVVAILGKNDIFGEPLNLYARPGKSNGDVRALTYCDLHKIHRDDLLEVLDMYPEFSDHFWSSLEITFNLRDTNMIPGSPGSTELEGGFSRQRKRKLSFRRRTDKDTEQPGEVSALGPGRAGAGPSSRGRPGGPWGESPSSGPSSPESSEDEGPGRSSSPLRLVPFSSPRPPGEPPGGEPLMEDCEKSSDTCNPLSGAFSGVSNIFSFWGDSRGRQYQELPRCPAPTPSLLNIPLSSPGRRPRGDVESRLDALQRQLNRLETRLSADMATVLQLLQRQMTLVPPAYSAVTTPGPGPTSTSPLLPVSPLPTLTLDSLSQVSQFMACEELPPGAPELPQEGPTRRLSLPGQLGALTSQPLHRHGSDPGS

Turning to `CN[C@H]1CCN(C(=O)c2nc(-c3ccc(C#N)c(F)c3)n(-c3ccc4nn(C)c(Cl)c4c3)c2C)C1`, the “inhibition (INH)” value in data set [1] and in data set [2] was “Active” each time. The inhibition – broadly, the relative decrease from the control value, in per cent – at 10 µM against hERG (KCNH2) is 24%. Further, the AUC(0-t) (as a rule, exposure summed from dosing to a finite time, without extrapolation to infinity) at 6 h in data set [3] is 0.64 µg·h/mL.

On to `CN[C@H]1CCN(C(=O)c2nc(-c3ccc(C#N)c(F)c3)n(-c3cc4cn(C)nc4cc3F)c2C)C1`, for which the “inhibition (INH)” value in data set [1] and in data set [2] was “Active” in each case. Moreover, testing at 10 µM against hERG (KCNH2) gave an inhibition of 22%.

On hERG (KCNH2), `COc1ccc(-n2c(-c3ccc(C#N)c(F)c3)nc(C(=O)N[C@@H]3CCCNC3)c2C)cc1F` showed an inhibition at 10 µM of 65%.

With `Cc1c(C(=O)N2CC[C@H](N)C2)nc(-c2ccc(C#N)c(F)c2)n1-c1ccc2nn(C)cc2c1`, the “inhibition (INH)” value in data set [1] and in data set [2] was “Active” throughout. The inhibition at 10 µM against hERG (KCNH2) amounted to 12%. Also, in data set [3], the AUC(0-t) at 6 h is 0.08 µg·h/mL.

For `Cc1ccc(-c2ncc(OC[C@@H]3CCNC3)cc2-c2ccc(C#N)cc2)cc1`, on hERG (KCNH2), at 10 µM the inhibition was 90%. Also, in data set [4], the concentration giving a half-maximal response (EC50) (commonly the concentration that produces a half-maximal response) is 0.062 µM. The IC50 (as a rule, the concentration at which inhibition is half-maximal) in data set [5] was 0.01 µM.

For the compound `Cc1c(C(=O)N2CC[C@H](N(C)C)C2)nc(-c2ccc(C#N)c(F)c2)n1-c1cc2cn(C)nc2cc1F`, the “inhibition (INH)” value in data set [1] and in data set [2] was “Active” in each case. Moreover, on hERG (KCNH2), 10 µM produced 44% inhibition. In data set [3], this compound registered an AUC(0-t) at 6 h of 0.94 µg·h/mL.

At hERG (KCNH2), `Cc1ccc(-n2c(-c3ccc(C#N)cc3)nc(C(=O)N3CCC[C@@H](N)C3)c2C)cc1` displayed an inhibition at 10 µM of 94%.

As for `COc1ccc(-n2c(-c3ccc(C#N)c(F)c3)nc(C(=O)N3CCC[C@@H](N)C3)c2C)cc1`, at 10 µM the inhibition against hERG (KCNH2) was 69%.

With `Cc1c(C(=O)N2CC[C@H](N(C)C)C2)nc(-c2ccc(C#N)c(F)c2)n1-c1cc(F)c2nn(C)cc2c1`, the “inhibition (INH)” value in data set [1] and in data set [2] was “Active” each time. Besides, 10 µM produced 17% inhibition on hERG (KCNH2). This compound yielded an AUC(0-t) at 6 h in data set [3] of 0.66 µg·h/mL.

The compound `COc1ccc(-n2c(-c3ccc(C#N)c(F)c3)nc(C(=O)N3CC[C@H](N)C3)c2C)cc1F` came in with an inhibition at 10 µM at hERG (KCNH2) of 41%.

For `Cc1c(C(=O)N2CCC[C@@H](N)C2)nc(-c2ccc(C#N)c(F)c2)n1-c1ccc2nn(C)c(Cl)c2c1`, the “inhibition (INH)” value in data set [1] and in data set [2] was “Active” throughout. This compound also gave an inhibition at 10 µM against hERG (KCNH2) of 28%. In data set [3], the exposure AUC(0-t) at 6 h came out at 0.1 µg·h/mL.

Take `Cc1c(C(=O)N2CC[C@H](N(C)C)C2)nc(-c2ccc(C#N)c(F)c2)n1-c1ccc2nn(C)cc2c1`: the “inhibition (INH)” value in data set [1] and in data set [2] was “Active” in each case. Also, at 10 µM the inhibition at hERG (KCNH2) was 30%. In data set [3], this compound came in with an area under the curve AUC(0-t) at 6 h of 0.76 µg·h/mL.

Consider `Cc1c(C(=O)N2CCC[C@@H](N)C2)nc(-c2ccc(C#N)c(F)c2)n1-c1ccc2nn(C)cc2c1`, for which the inhibition at 10 µM at hERG (KCNH2) is < 10%. In data set [3], this compound displayed an AUC(0-t) at 6 h of 0.025 µg·h/mL.

`Cc1c(C(=O)N2CCC[C@@H](N)C2)nc(-c2ccc(C#N)c(F)c2)n1-c1ccc2c(cnn2C)c1` had an inhibition at 10 µM against hERG (KCNH2) of 52%. For the same compound, the AUC(0-t) at 6 h in data set [3] came to 0.106 µg·h/mL.

With `CN[C@@H]1CCCN(C(=O)c2nc(-c3ccc(C#N)c(F)c3)n(-c3ccc4nn(C)c(Cl)c4c3)c2C)C1`, the “inhibition (INH)” value in data set [1] and in data set [2] was “Active” in each case. Besides, the inhibition at 10 µM against hERG (KCNH2) is 34%. In data set [3], the AUC(0-t) at 6 h worked out at 0.41 µg·h/mL.

As to `COc1ccc(-n2c(-c3ccc(C#N)c(F)c3)nc(C(=O)N3CCC[C@@H](N)C3)c2C)cc1F`, testing at 10 µM against hERG (KCNH2) gave an inhibition of 30%.
